Source: patent US8221975B2, “Method for detection of microorganism” (Morinaga Milk Industry Co., Ltd., priority 2007, dated 2012)

Key:
Format in all cases: cell-based
[1] = tested on: Enterobacter sakazakii ATCC 6538P; test: ompA real-time PCR (469 bp) of EMA-treated Enterobacter sakazakii, Ct value
[2] = tested on: Enterobacter sakazakii ATCC 6538P; test: ompA-PCR (469 bp) of EMA-treated Enterobacter sakazakii, band intensity of final amplified product; settings: multi-step treatment (EMA 10 μg/ml-incubation-EMA 10 μg/ml)
Description: (§1) A Gram-negative bacterium, Enterobacter sakazakii (Enterobacter sakazakii ATCC […]; hereinafter, abbreviated as “sakazakii” in some cases), was cultured in brain-heart infusion (BHI) broth at 37° C., and 5 ml of the culture medium in the logarithmic growth phase was centrifuged at 8,000×g for 15 minutes at 4° C., followed by removal of the supernatant. 5 ml of physiological saline was added to the bacterial cells, and the whole was vigorously stirred and diluted 10-fold. Thus, a live cell suspension was prepared. […] The live cell suspension (1 ml) was placed in a 1.5-ml microtube, and the microtube was immersed in boiling water for 2 minutes and immediately cooled with ice water, to thereby prepare a injured cell suspension. The cells in the suspension probably include small numbers of live cells and dead cells but include mainly injured cells. Therefore, the cells are simply referred to as “injured cells”. Note that the method of the present invention is originally intended to detect live cells, and microorganism cells distinguished from live cells may be injured cells or dead cells. Ethidium monoazide (EMA) was added to the live cell suspension and injured cell suspension of sakazakii prepared above at a final concentration of 0, 10, 25, or 100 μg/ml, and the suspensions were allowed to stand under shading at 4° C. for 10 minutes. The suspensions were placed on ice and irradiated for 5 minutes with a 500-W visible light (FLOOD PRF: 100 […] ELECTRIC CO., LTD., wavelength: 500 to 700 nm) at a distance of 20 cm from the suspensions. Then, the suspensions were centrifuged at 15,000×g for 10 minutes at 4° C., and the supernatants were removed. An equal volume of physiological saline was added thereto, and the suspensions were stirred and centrifuged while cooling at 15,000×g for 10 minutes at 4° C., followed by removal of the supernatants. An equal volume of brain-heart infusion (BHI) broth was added thereto, and the suspensions were incubated at 37° C. for 2 hours. In the first EMA treatment, EMA was not added again to the live cell and injured cell suspensions having an EMA concentration of 0, while EMA was added again at a final concentration of 10 μg/ml to the live cell and injured cell suspensions having an EMA concentration of 10, 25, or 100 μg/ml. The suspensions were allowed to stand under shading at 4° C. for 10 minutes, placed on ice, and irradiated for 5 minutes with a 500-W visible light at a distance of 20 cm from the suspensions. Ethidium monoazide (EMA) was added to the live cell and injured cell suspensions of sakazakii prepared in the section “1.” at a final concentration of 0, 10, 25 or 100 μg/ml, and the suspensions were allowed to stand under shading at 4° C. for 10 minutes, placed on ice, and irradiated for 5 minutes with a 500-W visible light (FLOOD PRF: […] ELECTRIC CO., LTD., wavelength: 500 to 700 nm) at a distance of 20 cm from the suspensions. Microtubes including one of the live cell and injured cell suspensions of sakazakii treated in the sections 2-1) and 2-2) above were centrifuged at 15,000×g for 10 minutes at 4° C. The supernatants were removed, and 1 ml of physiological saline was added thereto. The resultant suspensions were stirred vigorously and centrifuged while cooling in the same way as above (washing treatment). One more washing treatment was performed in the same way, and the same amount of sterile water as the initial amount was added to the pellets, followed by vigorous stirring. PCR Master Mix (total volume: 25.25 μl) was prepared using Direct Buffer Mix (G&g SCIENCE CO., LTD., Yokohama, Kanagawa) capable of sequentially and automatically performing elution of chromosomal DNA from a bacterium and PCR reactions. […]

[3] = tested on: Enterobacter sakazakii; test: as above
Description: as §1

[4] = tested on: Listeria monocytogenes JCM 2873; test: hlyA-PCR of EMA-treated Listeria (live and injured cells), band intensity of final amplified product on agarose gel; settings: for bands of hlyA gene amplified products (electrophoresis, FIG. 1): multi-step treatment (EMA 100 μg/ml-incubation-EMA 25 or 10 μg/ml); for bands estimated as hlyA gene amplified products (electrophoresis, FIG. 1): single-step treatment, live cells and injured cells
[5] = tested on: Enterobacter sakazakii ATCC 6538P; test: MMS-PCR of EMA-treated Enterobacter sakazakii, band intensity of final amplified product; settings: for bands of MMS gene amplified products (electrophoresis, FIG. 3): multi-step treatment (EMA 10 μg/ml-incubation-EMA 10 μg/ml)
Description: as §1

[6] = tested on: Salmonella enteritidis IIP 604; test: invA-PCR (378 bp) of EMA-treated Salmonella, band intensity of final amplified product; settings: for bands of invA gene amplified products (electrophoresis, FIG. 4): multi-step treatment (EMA 10 μg/ml-incubation-EMA 10 μg/ml)
[7] = single-step EMA 10 μg/ml, Injured cell
[8] = single-step EMA 10 μg/ml, Live cell
[9] = single-step EMA 25 μg/ml, Injured cell
[10] = single-step EMA 25 μg/ml, Live cell
[11] = single-step EMA 100 μg/ml, Injured cell
[12] = single-step EMA 100 μg/ml, Live cell
[13] = two-step EMA 10/10 μg/ml, Injured cell
[14] = two-step EMA 10/10 μg/ml, Live cell
[15] = two-step EMA 25/10 μg/ml, Injured cell
[16] = two-step EMA 25/10 μg/ml, Live cell
[17] = two-step EMA 100/10 μg/ml, Injured cell
[18] = two-step EMA 100/10 μg/ml, Live cell
[19] = multi-step: EMA 10 μg/ml + Incubation (37° C., 2 hr) + EMA 10 μg/ml, Injured cell
[20] = multi-step: EMA 10 μg/ml + Incubation (37° C., 2 hr) + EMA 10 μg/ml, Live cell

Compound: CC[n+]1c(-c2ccccc2)c2cc(N=[N+]=[N-])ccc2c2ccc(N)cc21 [EMA, ethidium monoazide]
- Ct value (mean ± SD, N = 2) [1, 7]: 36.3, ND^c,d
- number of times of positive reaction in two PCR assays (i/2) [1, 7]: (1/2)
- Ct value (mean ± SD, N = 2) [1, 8]: 18.8 ± 0.3
- number of times of positive reaction in two PCR assays (i/2) [1, 8]: (2/2)
- Ct value (mean ± SD, N = 2) [1, 9]: ND, ND
- number of times of positive reaction in two PCR assays (i/2) [1, 9]: (0/2)
- Ct value (mean ± SD, N = 2) [1, 10]: 20.9±0.6
- number of times of positive reaction in two PCR assays (i/2) [1, 10]: (2/2)
- Ct value (mean ± SD, N = 2) [1, 11]: 35.0, ND
- number of times of positive reaction in two PCR assays (i/2) [1, 11]: (1/2)
- Ct value (mean ± SD, N = 2) [1, 12]: 23.9 ± 0.9
- number of times of positive reaction in two PCR assays (i/2) [1, 12]: (2/2)
- Ct value (mean ± SD, N = 2) [1, 13]: ND, ND
- number of times of positive reaction in two PCR assays (i/2) [1, 13]: (0/2)
- Ct value (mean ± SD, N = 2) [1, 14]: 15.9±0.4
- number of times of positive reaction in two PCR assays (i/2) [1, 14]: (2/2)
- Ct value (mean ± SD, N = 2) [1, 15]: ND, ND
- number of times of positive reaction in two PCR assays (i/2) [1, 15]: (0/2)
- Ct value (mean ± SD, N = 2) [1, 16]: 20.1 ± 1.6
- number of times of positive reaction in two PCR assays (i/2) [1, 16]: (2/2)
- Ct value (mean ± SD, N = 2) [1, 17]: 36.0, ND
- number of times of positive reaction in two PCR assays (i/2) [1, 17]: (1/2)
- Ct value (mean ± SD, N = 2) [1, 18]: 23.6 ± 0.4
- number of times of positive reaction in two PCR assays (i/2) [1, 18]: (2/2)
- bands of ompA gene amplified products (electrophoresis, FIG. 2) ([2]; injured cells): no band was detected
- bands of ompA gene amplified products (electrophoresis, FIG. 2) ([2]; live cells): bands were clearly detected
- Band Intensity [3, 19]: 0.000
- Band Intensity [3, 20]: 1.546
- Band Intensity [3, 7]: 0.502
- Band Intensity [3, 8]: 1.690
- bands of hlyA gene amplified products (electrophoresis, FIG. 1) ([4]; injured cells): few or no bands were detected
- bands of hlyA gene amplified products (electrophoresis, FIG. 1) ([4]; live cells): bands were clearly detected
- Band Intensity ([4]; multi-step: EMA 100 μg/ml + Incubation (30° C., 2 hr) + EMA 10 μg/ml, Injured cell): 0.094
- Band Intensity ([4]; multi-step: EMA 100 μg/ml + Incubation (30° C., 2 hr) + EMA 10 μg/ml, Live cell): 1.420
- Band Intensity ([4]; multi-step: EMA 100 μg/ml + Incubation (30° C., 2 hr) + EMA 25 μg/ml, Injured cell): 0.024
- Band Intensity ([4]; multi-step: EMA 100 μg/ml + Incubation (30° C., 2 hr) + EMA 25 μg/ml, Live cell): 1.135
- Band Intensity [4, 7]: 1.539
- Band Intensity [4, 8]: 1.141
- Band Intensity [4, 9]: 0.418
- Band Intensity [4, 10]: 0.479
- bands estimated as hlyA gene amplified products (electrophoresis, FIG. 1) ([4]; EMA 10 μg/ml): detected in both the live cells and injured cells
- bands estimated as hlyA gene amplified products (electrophoresis, FIG. 1) ([4]; EMA 25 μg/ml): almost disappeared in both the live cells and injured cells
- bands of MMS gene amplified products (electrophoresis, FIG. 3) ([5]; injured cells): no band was detected
- bands of MMS gene amplified products (electrophoresis, FIG. 3) ([5]; live cells): bands were clearly detected
- Band Intensity [5, 19]: 0.000
- Band Intensity [5, 20]: 0.997
- Band Intensity [5, 7]: 0.855
- Band Intensity [5, 8]: 0.845
- bands of invA gene amplified products (electrophoresis, FIG. 4) ([6]; injured cells): no band was detected
- bands of invA gene amplified products (electrophoresis, FIG. 4) ([6]; live cells): bands were clearly detected
- Band Intensity [6, 19]: 0.000
- Band Intensity [6, 20]: 0.742
- Band Intensity [6, 7]: 1.218
- Band Intensity [6, 8]: 2.856
